As a reminder, the MIC is the least concentration at which growth counts as inhibited.

Each structure is given as a SMILES string.

Format in all cases: cell-based
One test concerns Aspergillus terreus AT49. Kind of test: MIC (YAG medium). To be noted: Aspergillus terreus; YAG medium; MIC banded into grades; AT49; read-out: MIC A. terreus 49 (grade). In a few lines:
(§1)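 Spores grown on Sabouraud agar and diluted in YAG medium (1% glucose, 1% ammonium chloride, 0.5% yeast extract) to final inocula of 1-2×10^4 cfu/mL over a 50-0.05 mg/L drug range. Read by OD485 after 24 hrs at 35° C. MIC (mg/L) is the lowest concentration inhibiting growth >70% versus drug-free control.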

Test [1] has as its system Aspergillus fumigatus AF293. Description: MIC (YAG medium). To be noted: Aspergillus fumigatus; YAG medium; MIC banded into grades; AF293; read-out: MIC A. fumigatus (grade). The essentials: as §1
The test system of another test is Aspergillus terreus AT4. Kind of test: MIC (YAG medium). The note with it: Aspergillus terreus; YAG medium; MIC banded into grades; AT4; read-out: MIC A. terreus (grade). In a few lines:
as §1

The next test relates to Aspergillus flavus. Description: MIC (YAG medium). The note with it: Aspergillus flavus; YAG medium; MIC banded into grades; read-out: MIC A. flavus (grade). The essentials: as §1
Test [2] deals with Aspergillus fumigatus AF210. Description: MIC (YAG medium). The note with it: Aspergillus fumigatus; YAG medium; MIC banded into grades; AF210; read-out: MIC A. fumigatus 210 (grade). The essentials:
as §1

The test system of a further test is Aspergillus niger. Kind of test: MIC (YAG medium). To be noted: Aspergillus niger; YAG medium; MIC banded into grades; read-out: MIC A. niger (grade). The essentials: as §1
Test [3] deals with Aspergillus fumigatus AF210. Description: Checkerboard titration (FIC) of an indolizine derivative with a second antifungal agent, RPMI medium. To be noted: compound of Example 21 in combination with caspofungin, 48 hrs. The procedure: To determine the combined antifungal effect of indolizine derivatives of formula (I) and the second antifungal agent a checkerboard titration can be carried out. These are relatively simple tests to determine the combined effects of two compound. In the checkerboard titration doubling dilutions of compound A (e.g. an indolizine derivative of formula (I)) are prepared in every row across a microtitre plate and doubling dilutions of compound B (e.g. a second antifungal agent as described above) are prepared in every column down a microtitre plate. The activity of the two compounds in combination can be compared with the activity of each compound alone. In these experiments a narrow range of dilutions was tested for each compound around the MIC.
A stock solution of the compound of Example […] was prepared in DMSO. A stock solution of a second antifungal agent, in this case caspofungin, was 2 mg/ml.
The stock solution of the compound of Example 21 was diluted 1:2000 in water to 2.5 μg/ml. From this stock, aqueous solutions containing the following concentrations of the compound of Example 21 were prepared 0.9, 0.8, 0.7, 0.6, 0.5, 0.4, 0.3, 0.2, 0.1, 0.05, 0.025, 0.0125 μg/ml. […]
To determine the combined effect of the compounds the Fractional inhibitory concentration FIC was determined, where FIC is defined as: […]

The test system of another test is Fusarium solani FS2. Description: 24 hr Fusarium solani MIC (RPMI medium, FS2). The note with it: banded into grades, read-out: MIC. The procedure:
Between 1 and 5 mgs of compound were accurately weighed out into a sterile Eppendorf tube. The compound was dissolved in DMSO to give a solution containing 5 mg/mL. Tubes were stored at −20° C. until required.
On the day of testing thawed solutions were vortex mixed to ensure homogeneity. 30 μL of solution was removed and added to 570 μL of sterile water in a separate sterile Eppendorf The thoroughly mixed solution was used to prepare a series of doubling dilutions in water, in a deep well plate. […] replicate plates were prepared using a Minitrak by aspirating 20 μL from each well into eleven clear polystyrene 96 well plates.
Spores of Aspergillus spp. (Aspergillus fumigatus [two strains], Aspergillus terreus [two strains], Aspergillus niger and Aspergillus flavus) were harvested from cultures grown on Sabarauds agar for 5 days, and resuspended in PBS/Tween 80 to approx 1×10^7 cfu/mL. Other filamentous fungi (Absidia corymbifera, Fusarium solani, Rhizomucor, Scedosporium spp., Trichophyton spp.), were grown on Sabarauds agar for 2-10 days and spores/hyphae resuspended in PBS/Tween to give approx 1×10^7 cfu/mL. Candida species (Candida albicans, Candida glabrata, Candida krusei, Candida parapsilosis and Candida tropicalis) were grown on Sabarauds agar, cells were harvested from the agar using a sterile loop and resuspended in PBS/Tween 80 to approx 1×10^6 cfu/mL. Each organism suspension was diluted in RPMI medium, containing 2% glucose and 0.135 M MOPS buffer (pH 7.0) to 0.5−2×10^4 cfu/mL for Aspergillus spp. and other filamentous fungi and 0.5-2×10^3 cfu/mL for yeast. 80 μL of an organism suspension was added to each well of the plate containing drug dilutions.
This produced MIC plates with a drug range 50-0.05 mg/L and organism inocula of 1-2×10^4 cfu/mL for Aspergillus spp. and other filamentous fungi and 1-2×10^3 cfu/mL for yeasts. All plates were incubated for 24-48 hrs at 35° C. Growth was assessed by monitoring the optical density at 485 nm for each well. The MIC of a compound is the lowest drug concentration that inhibits growth of an organism by >80% compared with a drug free control. MICs are recorded as mg/L. Other growth media can be used for susceptibility testing, and the activity of the described compounds can also be assessed in a medium comprising 1% glucose, 1% ammonium chloride and 0.5% yeast extract (YAG medium). To perform MIC tests in this medium, dilutions of compounds are prepared in microtitre plates as described above. Fungal strains to be tested are grown and harvested in an identical manner to that described above, each organism suspension is then diluted in YAG medium to 0.5-2×10^4 cfu/mL for Aspergillus spp. and other filamentous fungi and 0.5-2×10^3 cfu/mL for yeast. 80 μL of an organism suspension was added to each well of the plate containing drug dilutions. This produced MIC plates with a drug range 50-0.05 mg/L and organism inocula of 1-2×10^4 cfu/mL for Aspergillus spp. and other filamentous fungi and 1-2×10^3 cfu/mL for yeasts. All plates were incubated for 24 hrs at 35° C. Growth was assessed by monitoring the optical density at 485 nm for each well. The MIC of a compound is the lowest drug concentration that inhibits growth of an organism by >70% compared with a drug free control. MICs are recorded as mg/L. In cases where the MIC of an organism is […] mg/L the MIC is repeated using a concentration range of 0.5-0.0005 mg/L. MIC tests in YAG medium have more clear-cut endpoints and have slightly lower MICs than those performed in RPMI medium.
24 hr Fusarium solani MIC Results (RPMI Medium, FS2): […]

Consider `Cc1cc(C)nc(N2CCN(c3ccc(NC(=O)C(=O)c4c(-c5ccccc5)cc5ccccn45)cc3)CC2)c1` [Example 21, N-{4-[4-(4,6-Dimethyl-pyridin-2-yl)-piperazin-1-yl]-phenyl}-2-oxo-2-(2-phenyl-indolizin-3-yl)-acetamide], for which the MIC (in the test with Aspergillus terreus AT49; in test [1]; in the test with Aspergillus terreus AT4; with Aspergillus flavus; in test [2]; in the test with Aspergillus niger) was below 1 µg/mL in each case. The minimal inhibitory concentration (MIC) in the test with Fusarium solani FS2 was below 1 µg/mL. Also, in test [3], the “FIC (fractional inhibitory concentration)” value turned out to be 0.66.
In the case of `CON=C1CCN(c2ccc(NC(=O)C(=O)c3c(-c4ccccc4)cc4ccccn34)cc2)CC1` [Example 2, N-[4-(4-methoxyimino-piperidin-1-yl)-phenyl]-2-oxo-2-(2-phenyl-indolizin-3-yl)-acetamide], the MIC (with Aspergillus terreus AT49; in test [1]; in the test on Aspergillus terreus AT4; with Aspergillus flavus; in test [2]; in the test on Aspergillus niger) was below 1 µg/mL throughout. Also, the MIC in the test on Fusarium solani FS2 was below 1 µg/mL.
In the case of `O=C(Nc1ccc(N2CCC3(CC2)OCCO3)cc1)C(=O)c1c(-c2ccccc2)cc2ccccn12` [Example 23, N-[4-(1,4-dioxa-8-aza-spiro[4.5]dec-8-yl)-phenyl}-2-oxo-2-(2-phenyl-indolizine-3-yl)-acetamide], the MIC (in the test on Aspergillus terreus AT49; in test [1]; with Aspergillus terreus AT4; in the test with Aspergillus flavus; in test [2]; in the test on Aspergillus niger) was below 1 µg/mL throughout. The MIC with Fusarium solani FS2 was below 1 µg/mL.

The record behind these values is US20110183969A1, “ANTIFUNGAL COMBINATION THERAPY” (priority 2008, published 2011).
